Measurements published in patent US20240261266A1, “BENZIMIDAZOLE COMPOUND OR SALT THEREOF, CANINE FILARIASIS CONTROL AGENT CONTAINING SAME, AND METHOD OF USE THEREOF” (NIHON NOHYAKU CO., LTD., priority 2021, published 2024).

Tested on: Canine filariae (Dirofilaria immitis) L-3 stage larvae
Assay: Impact evaluation test on growth of canine filariae (L3 to L4)
Settings: 168 h, read-out: growth inhibition rate (growth from L3-stage larvae to L4-stage larvae)

For `CCCCC#Cc1ccc(-c2nc3c(Br)cc(Br)cc3[nH]2)o1` [Compound 1-11, 4,6-dibromo-2-(5-(1-hexynyl)-2-furyl)benzimidazole], the inhibition at 50 ppm was ≥ 50%.
